From PubChem BioAssay AID1963426 (Molecular Pharmacology Branch, DTP, NCI, 2024)

Tested on: 186277-243-T-J2-PDC complex spheroid growth, % test/control
Experiment: Anticancer human tumor 186277-243-T-J2-PDC patient-derived colon adenocarcinoma cell line growth inhibition [Asc]
Settings: for IC50: curve of first compound; for viability, T/C: stronger effect = lower value
Procedure, shortened: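 Tumor cells were grown as multicellular spheroids with stromal HUVEC and mesenchymal stem cells and treated singly or in combination. Concentrations fell in half-log steps from the clinical Cmax, or from 10 microM where none was known.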

[1] = second compound 0.1 µM, first compound 0.000316 µM
[2] = second compound 0.1 µM, first compound 0.001 µM
[3] = second compound 0.1 µM, first compound 0.00316 µM
[4] = second compound 0.1 µM, first compound 0.01 µM
[5] = second compound 0.1 µM, first compound 0.0316 µM
[6] = second compound 0.1 µM, first compound 0.1 µM
[7] = second compound 0.316 µM, first compound 0.000316 µM
[8] = second compound 0.316 µM, first compound 0.001 µM
[9] = second compound 0.316 µM, first compound 0.00316 µM
[10] = second compound 0.316 µM, first compound 0.01 µM
[11] = second compound 0.316 µM, first compound 0.0316 µM
[12] = second compound 0.316 µM, first compound 0.1 µM
[13] = second compound 1 µM, first compound 0.000316 µM
[14] = second compound 1 µM, first compound 0.001 µM
[15] = second compound 1 µM, first compound 0.00316 µM
[16] = second compound 1 µM, first compound 0.01 µM
[17] = second compound 1 µM, first compound 0.0316 µM
[18] = second compound 1 µM, first compound 0.1 µM
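Note: spheroids exposed to agents for 7 days.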
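Throughout, for viability, T/C: 100% = DMSO vehicle control wells.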

NC1CCC(NC2CC2c2ccccc2)CC1 (stereo not given) + CNC(C)C(=O)NC1CN(S(=O)(=O)c2cccc(S(=O)(=O)N3CCC4CCC(C(=O)NC(c5ccccc5)c5ccccc5)N4C(=O)C(NC(=O)C(C)NC)C3)c2)CCC2CCC(C(=O)NC(c3ccccc3)c3ccccc3)N2C1=O
IC50 (second compound 0.01 µM): > 100 nM
IC50 (second compound 0.0316 µM): > 100 nM
IC50 (second compound 0.1 µM): > 100 nM
IC50 (second compound 0.316 µM): > 100 nM
IC50 (second compound 1 µM): > 100 nM
viability, T/C (second compound 0.01 µM, first compound 0.000316 µM): 116%
viability, T/C (second compound 0.01 µM, first compound 0.001 µM): 105%
viability, T/C (second compound 0.01 µM, first compound 0.00316 µM): 109%
viability, T/C (second compound 0.01 µM, first compound 0.01 µM): 101%
viability, T/C (second compound 0.01 µM, first compound 0.0316 µM): 109%
viability, T/C (second compound 0.01 µM, first compound 0.1 µM): 106%
viability, T/C (second compound 0.0316 µM, first compound 0.000316 µM): 117%
viability, T/C (second compound 0.0316 µM, first compound 0.001 µM): 120%
viability, T/C (second compound 0.0316 µM, first compound 0.00316 µM): 111%
viability, T/C (second compound 0.0316 µM, first compound 0.01 µM): 114%
viability, T/C (second compound 0.0316 µM, first compound 0.0316 µM): 102%
viability, T/C (second compound 0.0316 µM, first compound 0.1 µM): 91.7%
viability, T/C [1]: 107%
viability, T/C [2]: 115%
viability, T/C [3]: 121%
viability, T/C [4]: 111%
viability, T/C [5]: 121%
viability, T/C [6]: 109%
viability, T/C [7]: 121%
viability, T/C [8]: 144%
viability, T/C [9]: 115%
viability, T/C [10]: 106%
viability, T/C [11]: 111%
viability, T/C [12]: 125%
viability, T/C [13]: 109%
viability, T/C [14]: 119%
viability, T/C [15]: 125%
viability, T/C [16]: 109%
viability, T/C [17]: 123%
viability, T/C [18]: 121%

C#Cc1c(F)ccc2cc(O)cc(-c3ncc4c(N5CC6CCC(C5)N6)nc(OCC56CCCN5CC(F)C6)nc4c3F)c12 (stereo not given) + CCN1C(C(=O)NC23CCC(C(=O)O)(CC2)CC3)C(c2cccc(Cl)c2F)C2(C(=O)Nc3cc(Cl)ccc32)C12CCCCC2
IC50 (second compound 0.03 µM): 119 nM
IC50 (second compound 0.0949 µM): 35.4 nM
IC50 (second compound 0.3 µM): < 31.6 nM
IC50 (second compound 0.949 µM): < 31.6 nM
IC50 (second compound 3 µM): < 31.6 nM
viability, T/C (second compound 0.03 µM, first compound 0.0316 µM): 57.1%
viability, T/C (second compound 0.03 µM, first compound 0.1 µM): 55.3%
viability, T/C (second compound 0.03 µM, first compound 0.316 µM): 24.1%
viability, T/C (second compound 0.03 µM, first compound 1 µM): 7.49%
viability, T/C (second compound 0.03 µM, first compound 3.16 µM): 4.76%
viability, T/C (second compound 0.03 µM, first compound 10 µM): 2.76%
viability, T/C (second compound 0.0949 µM, first compound 0.0316 µM): 52.6%
viability, T/C (second compound 0.0949 µM, first compound 0.1 µM): 26.3%
viability, T/C (second compound 0.0949 µM, first compound 0.316 µM): 7.13%
viability, T/C (second compound 0.0949 µM, first compound 1 µM): 3.79%
viability, T/C (second compound 0.0949 µM, first compound 3.16 µM): 2.21%
viability, T/C (second compound 0.0949 µM, first compound 10 µM): 2.17%
viability, T/C (second compound 0.3 µM, first compound 0.0316 µM): 27.4%
viability, T/C (second compound 0.3 µM, first compound 0.1 µM): 8.1%
viability, T/C (second compound 0.3 µM, first compound 0.316 µM): 3.14%
viability, T/C (second compound 0.3 µM, first compound 1 µM): 2.06%
viability, T/C (second compound 0.3 µM, first compound 3.16 µM): 1.62%
viability, T/C (second compound 0.3 µM, first compound 10 µM): 1.41%
viability, T/C (second compound 0.949 µM, first compound 0.0316 µM): 16.2%
viability, T/C (second compound 0.949 µM, first compound 0.1 µM): 5.72%
viability, T/C (second compound 0.949 µM, first compound 0.316 µM): 2.81%
viability, T/C (second compound 0.949 µM, first compound 1 µM): 2.32%
viability, T/C (second compound 0.949 µM, first compound 3.16 µM): 1.53%
viability, T/C (second compound 0.949 µM, first compound 10 µM): 1.08%
viability, T/C (second compound 3 µM, first compound 0.0316 µM): 7.02%
viability, T/C (second compound 3 µM, first compound 0.1 µM): 3.62%
viability, T/C (second compound 3 µM, first compound 0.316 µM): 2.69%
viability, T/C (second compound 3 µM, first compound 1 µM): 2.2%
viability, T/C (second compound 3 µM, first compound 3.16 µM): 1.71%
viability, T/C (second compound 3 µM, first compound 10 µM): 1.33%

Cn1ncnc1[C@H]1c2n[nH]c(=O)c3cc(F)cc(c23)N[C@@H]1c1ccc(F)cc1 + Cc1c(S(C)(=O)=O)c(-c2cc(F)cc(N3CCN(c4ccc(NS(=O)(=O)c5ccc(NC(CCN6CCC(C(=O)OCCCP(=O)(O)O)CC6)CSc6ccccc6)c(S(=O)(=O)C(F)(F)F)c5)cc4)CC3)c2)c(-c2ccc(Cl)cc2)n1C(C)C
IC50 (second compound 0.1 µM): > 100 nM
IC50 (second compound 0.316 µM): > 100 nM
IC50 (second compound 1 µM): > 100 nM
IC50 (second compound 3.16 µM): > 100 nM
IC50 (second compound 10 µM): 75 nM
viability, T/C [1]: 98.4%
viability, T/C [2]: 85.5%
viability, T/C [3]: 101%
viability, T/C [4]: 101%
viability, T/C [5]: 108%
viability, T/C [6]: 99.1%
viability, T/C [7]: 111%
viability, T/C [8]: 95.5%
viability, T/C [9]: 114%
viability, T/C [10]: 111%
viability, T/C [11]: 98.3%
viability, T/C [12]: 86.8%
viability, T/C [13]: 100%
viability, T/C [14]: 103%
viability, T/C [15]: 103%
viability, T/C [16]: 91.5%
viability, T/C [17]: 70%
viability, T/C [18]: 63.8%
viability, T/C (second compound 3.16 µM, first compound 0.000316 µM): 106%
viability, T/C (second compound 3.16 µM, first compound 0.001 µM): 99%
viability, T/C (second compound 3.16 µM, first compound 0.00316 µM): 113%
viability, T/C (second compound 3.16 µM, first compound 0.01 µM): 97.9%
viability, T/C (second compound 3.16 µM, first compound 0.0316 µM): 66%
viability, T/C (second compound 3.16 µM, first compound 0.1 µM): 56.1%
viability, T/C (second compound 10 µM, first compound 0.000316 µM): 95.4%
viability, T/C (second compound 10 µM, first compound 0.001 µM): 95.9%
viability, T/C (second compound 10 µM, first compound 0.00316 µM): 116%
viability, T/C (second compound 10 µM, first compound 0.01 µM): 96.1%
viability, T/C (second compound 10 µM, first compound 0.0316 µM): 70.5%
viability, T/C (second compound 10 µM, first compound 0.1 µM): 43.2%
